According to patent publication US20170209544A1, “A PEPTIDE THERAPY TO COUNTERACT INSULIN RESISTANCE AND TYPE 2 DIABETES” (The Regents of the University of California, priority 2014, published 2017):
Where no end group is shown, it is not given here.

Tests used:
[1] = Heart function; details: in vivo
[2] = tested on: peritoneal macrophages; assay: qPCR of inflammatory genes in cultured peritoneal macrophages; type: cell-based, mice; details: LPS 100 ng/ml, 4 hr; both WT and Chga-KO macrophages
Procedure: Peritoneal macrophages were isolated after thioglycollate (3% solution in water) stimulation as described. Isolated macrophages were cultured in DMEM with 10% FBS for 48 hours with daily medium changes. Cells were then serum-starved overnight in DMEM with low FBS (0.5%) and then exposed to saline, PST (100 nM), or LPS (100 ng/ml) for 4 hours. At the end of incubation, the cultures were subjected to RNA extraction.
RNA from tissues was extracted using a kit (RNeasy Plus, Qiagen, Valencia, Calif.). After DNase digestion, 200 ng of RNA was transcribed into cDNA in a 20-μl reaction using a High Capacity cDNA Archive kit and this cDNA was amplified. PCR (25-μl reactions) contained 5 μl of cDNA, 2×SYBR Green PCR Master Mix, and 400 nM of each primer. Differences in the threshold cycle number (ΔCt) between the target gene, the housekeeping gene Gapdh and the ribosomal protein gene 36B4 were used to calculate differences in expression. Primer sequences are provided below.
As shown in FIGS. 18A-18H, PST promotes macrophage inflammation and chemotaxis. Peritoneal macrophages were isolated from WT-NCD and KO-NCD after thioglycollate injection. After 4-hr exposure to saline, LPS (100 ng/ml) or PST (100 nM), RNAs were extracted and cDNAs were prepared for qPCR analyses of Chga (FIG. 18A, n=8), iNos (FIG. 18B, n=8), Tnfα (FIG. 18C, n=8), Mcp-1 (FIG. 18D, n=8), IL-6 (FIG. 18E, n=8), IL-12p40 (FIG. 18F, n=8) and iNos genes (FIG. 18G, n=8). (FIG. 18H) Effects of PST on chemotaxis of activated macrophages from NCD-fed C57BL/6J mice (n=5). “*” Denotes comparison between the indicated groups. “*”: P<0.05, “**”: p<0.01, “***”: p<0.001.

Row | Substance | effects on heart function [1] | expression of iNos [2] [fold]
1 | KGEQEHSQQKEEEEEMAVVPQGLFRG-NH2 [PSTv1] | no adverse effects on heart function | 
2 | lipopolysaccharide [LPS] |  | ~100
